Data from patent US11358962B2, “2-hetaryl imidazol[1,2-a]pyridine derivatives” (Hoffmann-La Roche Inc., priority 2013, dated 2022).

Tested on: native tau aggregates
Experiment: TAU radioligand in vitro displacement assay ([3H]T808, autoradiography on human AD brain sections)
Format: binding
Settings: compound 10 nM, radioligand [3H]T808 10 nM
Text: TAU Radioligand-In-Vitro Displacement Assay
This in vitro binding assay assesses the affinity of compounds for native tau aggregates.
AD human brains are purchased from Banner Sun Health Research Institute (Sun City, Ariz., USA). Pathological diagnosis of AD is made according to standard NIA-Reagan Institute criteria based on neuropathological data. The radioligand [^3H]T808 was synthesized in-house ([^3H]-2-[4-(2-Fluoro-ethyl)-piperidin-1-yl]-benzo[4,5]imidazo[1,2-a]pyrimidine, radiochemical purity 99.0%). As a reference cold T808 is used (2-[4-(2-Fluoro-ethyl)-piperidin-1-yl]-benzo[4,5]imidazo[1,2-a]pyrimidine). For the autoradiography FujiFilm Imaging Plates (BAS-IP TR 2025) are exposed to the sections and read with a FujiFilm IP reader (BAS-5000).
Ten μm thick human AD brain sections are generated with a cryostat (Leica CM3050) at −17° C. chamber temperature and −15° C. object temperature. Sections are transferred to Histobond+ microscope slides (Marienfeld Laboratory Glasware). After drying for 3 hours at room temperature the sections are stored at −20° C. The sections are incubated with the radioligand (10 nM) and the respective cold compound (at various concentrations) in 50 mM Tris buffer, pH 7.4 at room temperature for 30 min. After washing 3× 10 min at 4° C. in 50 mM Tris buffer, pH 7.4 and 3 quick dips in H2O dist. at 4° C. the sections are dried at 4° C. for 3 h. The sections are placed in a FujiFilm Cassette (BAS 2025), exposed with an Imaging Plate for five days and afterwards scanned with a resolution of […].
The signal intensity (Dens−PSL/mm2) in the region of interest (ROI) of the autoradiogram is quantified with the software MCID analysis (version 7.0, Imaging Research Inc.). The specific binding (SB) of [^3H]T808 binding in absence or in presence of a compound is calculated by subtracting the non-specific binding signal in the white matter, thus yielding SB[3H]T808 only and SBcompound. The % displacement by the various compounds is calculated as following: % displacement=100−(SBcompound/SB[3H]T808 only)*100. Validation Data
In each experiment cold T808 is used as a positive internal control. Co-incubation of equimolar amounts of hot and cold T808 is expected to reduce specific binding by approximately 50%.

| % displacement of [3H]T808 (10 nM) at 10 nM [%] | Compound |
| --- | --- |
| 32 | CC(=O)O.COc1cccc(-c2cn3ccc(N(C)CCF)cc3n2)c1 [Example 83, N-(2-fluoroethyl)-2-(3-methoxyphenyl)-N-methylimidazo[1,2-a]pyridin-7-amine, acetic acid adduct] |
| 26 | FC1CCN(c2ccn3cc(-c4ccc5c(c4)OCCO5)nc3c2)CC1 [Example 84, 2-(2,3-Dihydro-benzo[1, 4]dioxin-6-yl)-7-(4-fluoro-piperidin-1-yl)-imidazo[1,2-a]pyridine] |
| 17 | Cc1cccc(-c2cn3ccc(N4CCC(CCF)CC4)cc3n2)c1 [Example 85, 7-[4-(2-Fluoro-ethyl)-piperidin-1-yl]-2-m-tolyl-imidazo[1,2-a]pyridine] |
| 33 | CO[C@@H]1CCN(c2ccn3cc(-c4cccc(C)c4)nc3c2)C1 [Example 86, 7-((R)-3-Methoxy-pyrrolidin-1-yl)-2-m-tolyl-imidazo[1,2-a]pyridine] |
| 5 | Cc1ccc(-c2cn3ccc(N4CCC(CCF)CC4)cc3n2)cc1 [Example 87, 7-[4-(2-Fluoro-ethyl)-piperidin-1-yl]-2-p-tolyl-imidazo[1,2-a]pyridine] |
| 34 | CO[C@H]1CCN(c2ccn3cc(-c4ccc(C)cc4)nc3c2)C1 [Example 88, 7-((S)-3-Methoxy-pyrrolidin-1-yl)-2-p-tolyl-imidazo[1,2-a]pyridine] |
| 54 | CNc1ccn2cc(-c3ccc(CO)cc3)nc2c1 [Example 89, [4-[7-(Methylamino)imidazo[1,2-a]pyridin-2-yl]phenyl]methanol acetic acid adduct] |
| 32 | CN(C)c1ccn2cc(-c3ccc(CO)cc3)nc2c1 [Example 90, [4-[7-(Dimethylamino)imidazo[1,2-a]pyridin-2-yl]phenyl]methanol acetic acid adduct] |
| 39 | COc1cccc(-c2cn3ccc(N4CCC4)cc3n2)c1 [Example 91, 7-(azetidin-1-yl)-2-(3-methoxyphenyl)imidazo[1,2-a]pyridine] |
| 25 | CNc1ccn2cc(-c3cc(OC)cc(OC)c3)nc2c1 [Example 92, 2-(3,5-dimethoxyphenyl)-N-methylimidazo[1,2-a]pyridin-7-amine] |
| 39 | CC(=O)O.CCOc1ccc(-c2cn3ccc(NC)cc3n2)cc1 [Example 93, N-[2-(4-Ethoxy-phenyl)-imidazo[1,2-a]pyridin-7-yl]-methyl-amine acetic acid adduct] |
| 18 | CC(=O)O.CNc1ccn2cc(-c3ccc(N4CCCC4)cc3)nc2c1 [Example 94, Methyl-[2-(4-pyrrolidin-1-yl-phenyl)-imidazo[1,2-a]pyridin-7-yl]-amine acetic acid adduct] |
| 55 | CNc1ccn2cc(-c3ccc(OC)c(F)c3)nc2c1 [Example 95, N-[2-(3-Fluoro-4-methoxy-phenyl)-imidazo[1,2-a]pyridin-7-yl]-methyl-amine] |
| 35 | CNc1ccn2cc(-c3ccc4c(c3)OCCCO4)nc2c1 [Example 96, N-[2-(3,4-Dihydro-2H-benzo[b][1,4]dioxepin-7-yl)-imidazo[1,2-a]pyridin-7-yl]-methyl-amine] |
| 18 | CCN(CC)c1ccc(-c2cn3ccc(NC)cc3n2)cc1 [Example 97, N-[2-(4-Diethylamino-phenyl)-imidazo[1,2-a]pyridin-7-yl]-methyl-amine] |
| 38 | CCc1ccc(-c2cn3ccc(NC)cc3n2)cc1 [Example 98, N-[2-(4-Ethyl-phenyl)-imidazo[1,2-a]pyridin-7-yl]-methyl-amine] |
| 37 | COCc1ccc(-c2cn3ccc(N(C)C)cc3n2)cc1 [Example 99, 2-[4-(Methoxymethyl)phenyl]-N,N-dimethyl-imidazo[1,2-a]pyridin-7-amine acetic acid adduct] |
| 59 | CNc1ccn2cc(-c3ccsc3)nc2c1 [Example 100, Methyl-(2-thiophen-3-yl-imidazo[1,2-a]pyridin-7-yl)-amine] |
| 50 | CNc1ccn2cc(-c3ccco3)nc2c1 [Example 101, N-(2-Furan-2-yl-imidazo[1,2-a]pyridin-7-yl)-methyl-amine] |
| 50 | CNc1ccn2cc(-c3cccs3)nc2c1 [Example 102, N-(2-Thiophen-2-yl-imidazo[1,2-a]pyridin-7-yl)-methyl-amine] |

| % displacement of [3H]T808 (10 nM) at 10 nM [%] | Compound |
| --- | --- |
| 47 | CNc1ccn2cc(-c3ccc(N4CCOCC4)cc3)nc2c1 [Example 103, Methyl-[2-(4-morpholin-4-yl-phenyl)-imidazo[1,2-a]pyridin-7-yl]-amine] |
| 10 | CNc1ccn2cc(-c3nccs3)nc2c1 [Example 104, Methyl-(2-thiazol-2-yl-imidazo[1,2-a]pyridin-7-yl)-amine] |
| 10 | CN(C)c1ccn2cc(-c3ccc(COCCF)cc3)nc2c1 [Example 105, 2-[4-(2-Fluoroethoxymethyl)phenyl]-N,N-dimethyl-imidazo[1,2-a]pyridin-7-amine] |
| 36 | FCCOc1ccc(-c2cn3ccc(N4CCC4)cc3n2)cc1 [Example 106, 7-(Azetidin-1-yl)-2-[4-(2-fluoroethoxy)phenyl]imidazo[1,2-a]pyridine] |
| 48 | FCOc1cccc(-c2cn3ccc(N4CCC4)cc3n2)c1 [Example 107, 7-(Azetidin-1-yl)-2-[3-(fluoromethoxy)phenyl]imidazo[1,2-a]pyridine] |
| 26 | CNc1ccn2cc(-c3ccc(C)c(OC)c3)nc2c1 [Example 108, 2-(3-methoxy-4-methylphenyl)-N-methylimidazo[1,2-a]pyridin-7-amine] |
| 40 | CNc1ccn2cc(-c3ccc(OCCF)cc3)nc2c1 [Example 109, 2-[4-(2-Fluoroethoxy)phenyl]-N-methylimidazo[1,2-a]pyridin-7-amine] |
| 14 | CNc1ccn2cc(-c3ccc(N(C)Cc4ccccc4)cc3)nc2c1 [Example 110, 2-(4-(benzyl(methyl)amino)phenyl)-N-methylimidazo[1,2-a]pyridin-7-amine] |
| 17 | CNc1ccn2cc(-c3sccc3Br)nc2c1 [Example 111, N-[2-(3-Bromo-thiophen-2-yl)-imidazo[1,2-a]pyridin-7-yl]-methyl-amine] |
| 6 | CNc1ccn2cc(-c3sccc3Cl)nc2c1 [Example 112, N-[2-(3-Chloro-thiophen-2-yl)-imidazo[1,2-a]pyridin-7-yl]-methyl-amine] |
| 48 | CNc1ccn2cc(-c3ccc(OC(F)F)cc3)nc2c1 [Example 113, N-[2-(4-Difluoromethoxy-phenyl)-imidazo[1,2-a]pyridin-7-yl]-methyl-amine] |
| 33 | CNc1ccn2cc(-c3ccc(Br)cc3)nc2c1 [Example 114, N-[2-(4-Bromo-phenyl)-imidazo[1,2-a]pyridin-7-yl]-methyl-amine] |
| 58 | CNc1ccn2cc(-c3ccc(C)o3)nc2c1 [Example 115, Methyl-[2-(5-methyl-furan-2-yl)-imidazo[1,2-a]pyridin-7-yl]-amine] |
| 47 | CNc1ccn2cc(-c3cc4ccccc4o3)nc2c1 [Example 116, N-[2-(Benzofuran-2-yl)-imidazo[1,2-a]pyridin-7-yl]-methyl-amine] |
| 18 | CNc1ccn2cc(-c3cc(C)nn3C)nc2c1 [Example 117, N-[2-(2,5-Dimethyl-2H-pyrazol-3-yl)-imidazo[1,2-a]pyridin-7-yl]-methyl-amine] |
| 20 | CNc1ccn2cc(-c3ccc(N4CCCCC4)cc3)nc2c1 [Example 118, Methyl-[2-(4-piperidin-1-yl-phenyl)-imidazo[1,2-a]pyridin-7-yl]-amine] |
| 46 | CNc1ccn2cc(-c3ccc4c(c3)NC(=O)CO4)nc2c1 [Example 119, 6-(7-Methylamino-imidazo[1,2-a]pyridin-2-yl)-4H-benzo[1,4]oxazin-3-one] |
| 20 | CNc1ccn2cc(-c3ccccc3O)nc2c1 [Example 120, 2-(7-Methylamino-imidazo[1,2-a]pyridin-2-yl)-phenol] |
| 19 | CNc1ccn2cc(-c3nc4ccccc4n3C)nc2c1 [Example 121, Methyl-[2-(1-methyl-1H-benzoimidazol-2-yl)-imidazo[1,2-a]pyridin-7-yl]-amine] |
